Measured values reported in patent US6339062B1, “Retroinverso polypeptides that mimic or inhibit thrombospondin activity” (Inkine Pharmaceutical Company, Inc., priority 1998, dated 2002).
Bridges are numbered along the chain shown (N, C = ends). Where no end group is shown, it is not given here. The star is where a group is joined. For = O=C*

Columns and labels:
[1] = test system: MMP-9 production in BAE cells; assay: TSP-1-stimulated endothelial MMP-9 production (Example 27); assay type: cell-based; settings: for % inhibition (MMP-9) / Relative MMP-9 Levels: with 15 μg/ml TSP-1; for inhibited MMP-9 production: at high doses
Experimental: BAE cells were treated with TSP-1 as described in Example 27. MMP-9 levels were quantitated from densitometry of the zymograms prepared from the BAE cell conditioned media. The control was 15 μg/ml TSP-1. All other treatments were performed in the presence of 15 μg/ml TSP-1.

[2] = test system: melanoma cells on absorbed thrombospondin; assay: Competitive assay, thrombospondin specific adhesion to melanoma cells (Example 17); assay type: cell-based, mouse
Text: The direct adhesion assay of Example 16 was modified to measure the ability of the peptide compounds of the invention to compete with intact thrombospondin for adhesion to melanoma cells.
In this assay, intact thrombospondin is absorbed onto microtiter dishes as described in Example 16. […]

[3] = test system: platelets on absorbed fibronectin (FN); assay: Competitive platelet adhesion assay, absorbed fibronectin (Example 19); assay type: cell-based; settings: 250 μg/ml; absorbed protein FN
Experimental: (§1) The direct adhesion assay of Example 18 was modified to measure the ability of the peptide compounds of the invention to compete with intact thrombospindin or fibronectin for adhesion of platelets.
(§2) In this assay, thrombospondin (TSP) or fibronectin (FN) was absorbed onto microtiter dish as described in Example 18. The assay was similar to Example 18 except that before platelets were added to the microtiter dishes they were preincubated with 250 μg/ml of various ligands.

[4] = test system: platelets (platelet-rich-plasma); assay: Platelet aggregation assay in platelet-rich-plasma (Example 8); assay type: cell-based; settings: in vitro; FIG. 22
Experimental: Platelet aggregation was monitored on a single-channel aggregometer equipped to measure luminescence (Chromo-Log, Havertown, Pa.). Platelet-rich-plasma (PRP) was obtained from whole blood anticoagulated with 0.38% sodium citrate by centrifugation at 150×g for 20 minutes.
0.5 ml aliquots of platelet-rich-plasma were aggregated by stirring with 2 uM ADP in the presence of various concentrations of Cys-Ser-Val-Thr-Cys-Gly (SEQ ID NO: 21) and Gly-Arg-Gly-Asp-Ser (SEQ ID NO: 36). Aggregation was measured at 37° as decrease in optical absorbance vs. time in a chrono-log aggregometer and is shown in FIG. 8. Peptides designated in each panel are represented by their amino acid sequence using the one letter amino acid code.

[5] = test system: platelets on absorbed thrombospondin (TSP); assay: Competitive platelet adhesion assay, absorbed thrombospondin (Example 19); assay type: cell-based; settings: 250 μg/ml; absorbed protein TSP
Experimental: as §1, §2

[6] = test system: B16 F10 mouse melanoma cells; assay: Antimetastatic activity in vivo (Example 20); design: species or system C57 black mice; settings: 16 days
[7] = test system: mouse B16-F10 melanoma cells; assay: Direct adhesion to dried peptide (Example 31); assay type: cell-based; settings: 10 μg of each peptide; one hour; FIG. 20
Experimental: Peptide effect on direct adhesion was tested by drying 10 μg of each peptide on the bottom of a 96well microtiter plate. Plates were blocked with BSA. Mouse B16-F10 melanoma cells (50,000) were plated in each well and allowed to attach for one hour. Non-adherent cells were aspirated out, plates rinsed, and adherent cells were fixed, stained, and counted. The error bars represent the standard deviation.

[8] = test system: mouse B16-F10 melanoma cells; assay: Boyden chamber assay, TSP-1 mediated invasion of collagen (Examples 29, 30); assay type: cell-based; settings: for inhibition of TSP-1 mediated invasion: 500 μg/ml peptide top chamber, 20 μg/ml TSP-1 bottom chamber, 6 hours, FIG. 18
Experimental: Cell invasion was investigated by the Boyden Chamber Invasion Assay using the modified Boyden chamber. T. Frandsen et al., Fibrinolysis, 6: 71-76 (1992). Polycarbonate filters, 12 μm pore size, e.g., Millicell, Millipore Corporation, Bedford, Ma, were coated with 100 μg Type IV collagen (1 mg/ml 60% EtOH) and dried overnight at 25° C. Blind-well Boyden chambers are filled with 600 μl of serum-free media containing 0.1% BSA in the lower compartment, and the coated filters will be mounted in the chamber. Approximately 50,000 cells (tested to be greater than 95% viable) suspended in 400 μl of the same media will be placed in the upper chamber of the apparatus and allowed to settle onto the collagen-coated membrane. Varying concentrations of TSP-1 (0-150 nM) will be placed in the lower compartment and any neutralizing antibodies as well as peptides will be placed in the upper chamber. After an incubation period of about 3 to 6 hours at 37° C., the cells on the upper surface of the filter will be removed with a cotton swab. The filters are then fixed in 3% glutaraldehyde solution and stained with 0.5% crystal violet solution. Invasive cells adhering to the under-surface of the filter are counted using a phase contrast microscope (400×).
Using this assay, mouse B16-F10 melanoma cells (50,000) were plated on the collagen-coated disk of the Boyden chamber apparatus. The top chamber contained melanoma cells in the presence of 500 μg/ml of the TSP-1 derived peptide and the bottom chamber contained 20 μg/ml TSP-1. After 6 hours, cells traversing the collagen were counted as cells attached to the underside of the collagen-coated disk. Five representative fields per chamber in duplicate were counted. The data shown in FIG. 18 represents the average per field and the error bars represent the standard deviation. The scrambled peptide, Val-Cys-Thr-Gly-Ser-Cys (SEQ ID NO: 7), the irrelevant peptide, Ala-Ser-Val-Thr-Ala-Arg (SEQ ID NO: 38), buffer, and the d-amino acid Cys-Ser-Val-Thr-Cys-Gly (SEQ ID NO: 40) had no effect on invasion.
The experiments were performed as described for Example 29. […] In contrast, d-Cys-Ser-Val-Thr-Cys-Gly (SEQ ID NO: 40) had no effect.

[9] = test system: mouse B16-F10 melanoma cells; assay: Melanoma tumor cell metastasis, peptide i.v. (Example 21); assay type: in vivo, mice; settings: 1 mg peptide i.v. shortly before or after tumor implantation; two weeks; FIG. 12
Text: Mice were sacrificed two weeks later and lung tumors counted. Treatment groups consisted of five animals. The photograph of FIG. 12 depicts three lungs from each treatment group. The black spots are melanoma tumors. All metastasis experiments were repeated 2-3 times showing qualitatively similar results depicted in the bar graph of FIG. 12.

[10] = test system: Mouse B16 F10 melanoma cells; assay: Direct adhesion assay (Example 16); assay type: cell-based; settings: absorbed compound 2 μg
Experimental: It is believed that thrombospondin acts in metastasis through its adhesive properties. An assay was developed, generally in accordance with the disclosure of Tuszynski et al., Anal. Bio., 184:189-91 (1990), which evaluates the ability of melanoma cells to adhere to the thrombospondin fragments or analogs of the invention. In this assay, wells of a 96-well microtiter dish (Costar, Cambridge, Mass.) were incubated for two to three hours with […] of a […] solution of various ligands in 20 mM NaCl, pH 7.3. Thrombospondin (purified by the method of Tuszynski et al., J. Biol. Chem., 260:12240-5 (1985), fibronectin (Sigma Chemical Co., Missouri) served as the positive control. Bovine serum albumin (BSA) (Sigma Chemical Co.) served as the negative control. Thrombospondin analogs of the invention p1, p5 and p6 were synthesized as described in Examples 1 through 3. Following peptide adhesion to the microtiter dish, the wells were aspirated, treated with 200 μl phosphate buffered saline (PBS) containing 1% BSA for 1 hour and then washed three more times with 200 μl PBS.
Mouse B16 F10 melanoma cells were grown and harvested during log phase of growth using standard procedures. The harvested cells were washed two times in serum-free Dulbecco's minimum essential medium (DMEM) (Flow Laboratories) and suspended in DMEM at a final concentration of 4×10^5 cells/ml. Of the cell suspension 100 μl was added to each well of the microtiter dish containing the various ligands and the dish incubated at 37° C. in a CO2 incubator for 1 hour. Nonadherent cells were removed by aspiration and the wells washed three times with 200 μl of PBS. The total cell-associated protein was determined by dissolving the attached cells directly in the microtiter wells with 200 μl of the Pierce BCA working solution (Pierce Chem. Co. Booklet No. 23225 (1987)). […] Plates were allowed to cool to room temperature, cover sheets were removed, and the absorbance of each well was determined at 562 nm with a microtiter plate reader (Biotek, Burlington, Vt.)

platelets = assay: Direct platelet adhesion assay (Example 18); assay type: cell-based; settings: wells treated with 50 μl of 40 μg/ml
Experimental: The number of adherent platelets was essentially determined as previously described (Tuszynski et al., Anal. Bio., supra). Briefly, 100 μl of 5×10^8 platelets/ml washed as previously described (Tuszynski, et al., Blood, 72:109-225 (1988)) were added to microtiter plates, the wells of which were treated with 50 μl of a 40 μg/ml peptide or protein solution (Hepes buffered saline, pH 7.4). Solutions were dried at room temperature after incubation in a fume hood for two hours. Wells were blocked for one hour with 1% BSA. Platelets (100 μl) were incubated in the wells for 30 minutes and non-adherent platelets were removed by aspiration. Wells were washed 3× with 200 μl of Hepes buffered saline, pH 7.4. The number of adherent platelets was determined by measuring the platelet-derived protein using the BCA protein assay.

Substance: Arg-Gly-Asp
- % inhibition (MMP-9) ([1]; 0.50 mM): 0%
- Relative MMP-9 Levels ([1]; 0.50 mM): 1.03
- inhibited MMP-9 production [1]: no effects

Substance: Trp-Ser-Pro-Cys-Ser-Val-Thr-Cys-Gly-NH2 (WSPCSVTCG-NH2; cysteine pairing not given here) [p6]
- % of Buffer Control (melanoma cell adhesion to thrombospondin) ([2]; 200 μg/ml): 74%
- % of Buffer Control (melanoma cell adhesion to thrombospondin) ([2]; 300 μg/ml): 74%
- % Buffer Control (platelet adhesion) [3]: 96%
- platelet aggregation [4]: inhibit platelet aggregation
- % Buffer Control (platelet adhesion) [5]: 98%
- % buffer control (number of lung tumors) ([6]; 30 μg/mouse): 91%
- % buffer control (number of lung tumors) ([6]; 100 μg/mouse): 102%
- % buffer control (number of lung tumors) ([6]; 300 μg/mouse): 50%
- number of tumors compared with controls [6]: statistically fewer tumors than controls
- size of lung tumors [6]: smaller in size

Substance: VCTGSC (cysteine pairing not given here) [scrambled peptide control, reference compound]
- adhesion of cells to dried peptide [7]: did not promote adhesion
- inhibition of TSP-1 mediated invasion [8]: no effect

Substance: CSTSCG (cysteine pairing not given here)
- melanoma cell metastasis (lung tumors) [9]: significantly blocked

Substance: fTrp-Ser-Pro-Cys-Ser-Val-Thr-Cys-Gly-NH2 (For-WSPCSVTCG-NH2; cysteine pairing not given here) [p5]
- Adhesion as % Thrombospondin [10]: display adhesive properties
- Adhesion as % Thrombospondin ([10]; listed as P5): 79%
- % of Buffer Control (melanoma cell adhesion to thrombospondin) ([2]; 10 μg/ml): 99%
- % of Buffer Control (melanoma cell adhesion to thrombospondin) ([2]; 50 μg/ml): 104%
- % of Buffer Control (melanoma cell adhesion to thrombospondin) ([2]; 200 μg/ml): 89%
- % of Buffer Control (melanoma cell adhesion to thrombospondin) ([2]; 300 μg/ml): 83%
- % Buffer Control (platelet adhesion) [3]: 109%
- platelet aggregation [4]: inhibit platelet aggregation
- % Buffer Control (platelet adhesion) [5]: 107%
- % buffer control (number of lung tumors) ([6]; 30 μg/mouse): 87%
- number of tumors compared with controls [6]: statistically fewer tumors than controls

Substance: fibronectin [reference compound]
- Adherence as % Control (adherent platelets) (platelets): 83%

Substance: ASVTAR [irrelevant peptide]
- adhesion of cells to dried peptide [7]: did not promote adhesion
- Relative MMP-9 Levels ([1]; 0.20 mM): 0.78
- inhibited MMP-9 production [1]: no effects
- inhibition of TSP-1 mediated invasion [8]: no effect

Substance: d-Gly-Cys-(Acm)-Thr-Val-Ser-Cys-(Acm)
- adhesion of cells to dried peptide [7]: half as well as fibronectin and TSP-1
- dose-dependent effect on melanoma cell invasion ([8]; FIG. 19): same dose-dependent inhibition

Substance: Heparin
- % inhibition (MMP-9) ([1]; 50 μg/ml): 6%
- Relative MMP-9 Levels ([1]; 50 μg/ml): 0.94
- % inhibition (MMP-9) ([1]; 500 μg/ml): 55%
- Relative MMP-9 Levels ([1]; 500 μg/ml): 0.45
- % inhibition (MMP-9) ([1]; 1000 μg/ml): 50%
- Relative MMP-9 Levels ([1]; 1000 μg/ml): 0.50
- inhibited MMP-9 production [1]: 50%

Substance: Cys-Ser-Val-Thr-Cys-Gly (disulfide linked) (CSVTCG; disulfide 1-5 (inferred)) [cyclic Cys-Ser-Val-Thr-Cys-Gly]
- melanoma cell metastasis (lung tumors) [9]: significantly blocked

Substance: WSPCSVTCG (cysteine pairing not given here) [p1]
- Adherence as % Control (adherent platelets) (platelets): adhere to platelets
- Adherence as % Control (adherent platelets) (platelets; listed as P1): 39%
- % of Buffer Control (melanoma cell adhesion to thrombospondin) ([2]; 10 μg/ml): 49%
- % of Buffer Control (melanoma cell adhesion to thrombospondin) ([2]; 50 μg/ml): 40%
- platelet aggregation [4]: inhibit platelet aggregation
- % buffer control (number of lung tumors) ([6]; 30 μg/mouse): 49%
- number of tumors compared with controls [6]: statistically fewer tumors than controls
- size of lung tumors [6]: smaller in size

Substance: Thrombospondin: purified thrombospondin, positive control [reference compound]
- Adhesion as % Thrombospondin [10]: 100%
- Adherence as % Control (adherent platelets) (platelets): 100%
